Experiments:
[1] = test system: SCC-13 cells; assay: EMT marker immunoblot, SCC-13 cells; format: cell-based, human; conditions: 20 μM, 48 h
Experimental: In (A), SCC-13 cells (500,000) were plated in monolayer culture in spheroid medium in 100 mm dishes. Fresh spheroid medium containing 0 or 20 μM NC9 was added at time zero and again at 24 h. After 48 h lysates were collected for electrophoresis and immunoblot. In (B), SCC-13 cells were pretreated with 0 or 20 μM NC9 for 2 h and then harvested and plated (25,000 cells) in the upper chamber in 1 mL of medium, above a matrigel-coated membrane, in a Millicell chamber. After 30 h. the inside of membrane was harvested and the nuclei of migrated cells on the bottom of the membrane were counted using an inverted fluorescent microscope. The values are mean±SEM, n=3 (p, 0.05). In (C), SCC-13 (2 million) cells were plated in spheroid medium in 100 mm dishes and grown as monolayer cultures. Confluent monolayers were then scratched with a 10-μL pipette tip and wound width was monitored for 0-18 h.
Immunoblot. […] Blots were rinsed and then incubated with secondary antibody (diluted 1:5000) for 2 h. Secondary antibody binding was visualized using ECL Prime chemiluminescence detection technology (Amersham).

[2] = test system: ECS cells (derived from SCC-13) tumors; assay: Tumor xenograft growth assay, SCC-13-derived ECS cells in NSG mice; format: in vivo
Experimental: In (A), SCC13-Control-shRNA and SCC13-TG2-shRNA2 cells were double electroporated with empty vector (EV) or YAP(S127A)-encoding vector and at 48 h post-electroporation lysates were collected for immunoblot. In (B), (C), and (D), the indicated cell lines were electroporated with EV or YAP(S127A)-encoding vector and then plated for spheroid formation, invasion and migration assay. In (E) and (F), ECS cells (100,000 cells derived from SCC-13) were injected into each front flank in NSG mice. At 1 d post injection, the mice were treated with 0 or 20 mg NC9 per kg body weight delivered in 200 μl by gavage three times per week. Images represent appearance and size of typical control and NC9 treated tumors harvested on week four. In (G), tumors were harvested at 4 wk and extracts were prepared for assay of indicated proteins. Blots from two representative tumors are shown. In (H), a proposed TG2 signaling scheme is shown. TG2 interacts with α6/β4 integrin to enhance integrin (FAK/Src) signaling which increases PI3K/PDK1 activity and PDK suppresses activity in the Hippo signaling cascade (LATS1). This leads to reduced LATS1 phosphorylation of YAP1 which then interacts with and stabilizes ΔNp63α. […]
Tumor xenograft growth assay. […] Tumor growth was monitored by measuring tumor diameter and calculating tumor volume=4/3π×(diameter/2)^3 (Streit, M. et al., Am. J. Pathol. 155:441-52, 1999). […]

For `C=CC(=O)NCCCC[C@H](NC(=O)OCc1ccccc1)C(=O)NCCOCCOCCNS(=O)(=O)c1cccc2c(N(C)C)cccc12` [NC9], the E-cadherin level [1] was “elevated”, the “EMT transcription factor and EMT marker levels” value [1] was “reduced EMT transcription factor (Twist, Snail, Slug) and EMT marker (vimentin, fibronectin, N-cadherin, HIF-1α) levels” and the tumor formation ([2]; 20 mg/kg body weight, three times per week, 4 wk) was “markedly suppressed tumor formation”. The “integrin and Hippo signaling in tumor extracts” value ([2]; 20 mg/kg, tumors harvested at 4 wk) was “reduced integrin-04 level, and FAK and Src activity, and increased LATS1-P and YAP-P”.
